Columns and labels:
Type in all cases: in vivo
[1] = tested on: barnyardgrass (Echinochloa crus-galli); experiment: Test A pre-/postemergence plant response
In short: (§1)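 Seeds in loam soil/sand blend treated preemergence by directed soil spray, with simultaneous postemergence spray on 2–10 cm plants at one- to two-leaf stage; compounds in non-phytotoxic solvent with surfactant. Injury visually rated versus untreated controls after about 10 days in greenhouse, 0 (no effect) to 100 (complete control).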

corn (Zea mays) = experiment: Test A pre-/postemergence plant response
In short: as §1

[2] = tested on: giant foxtail (Setaria faberi); experiment: Test A pre-/postemergence plant response
In short: as §1

[3] = tested on: large crabgrass (Digitaria sanguinalis); experiment: Test A pre-/postemergence plant response
In short: as §1

[4] = tested on: morningglory (Ipomoea coccinea); experiment: Test A pre-/postemergence plant response
In short: as §1

[5] = tested on: pigweed (Amaranthus retroflexus); experiment: Test A pre-/postemergence plant response
In short: as §1

[6] = tested on: velvetleaf (Abutilon theophrasti); experiment: Test A pre-/postemergence plant response
In short: as §1

[7] = tested on: wheat (Triticum aestivum); experiment: Test A pre-/postemergence plant response
In short: as §1

[8] = tested on: barnyardgrass (Echinochloa crus-galli); experiment: Test B flooded paddy test plant response
In short: (§2)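 Rice, umbrella sedge, ducksalad and barnyardgrass at 2-leaf stage; pots flooded to 3 cm, compounds applied into paddy water, depth held throughout. Greenhouse 13 to 15 days, then visual rating vs untreated controls on 0–100 scale (0 no effect, 100 complete control); dash means no test result.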

[9] = tested on: ducksalad (Heteranthera limosa); experiment: Test B flooded paddy test plant response
In short: as §2

rice (Oryza sativa) = experiment: Test B flooded paddy test plant response
In short: as §2

[10] = tested on: umbrella sedge (Cyperus difformis); experiment: Test B flooded paddy test plant response
In short: as §2

[11] = Postemergence, 125 g ai/ha, 0 to 100 scale, 0 no effect, 100 complete control
[12] = Postemergence, 500 g ai/ha, 0 to 100 scale, 0 no effect, 100 complete control
[13] = Preemergence, 125 g ai/ha, 0 to 100 scale (0 no effect, 100 complete control)
[14] = Preemergence, 500 g ai/ha, 0 to 100 scale (0 no effect, 100 complete control)
[15] = Flood (flooded paddy test), 62 g ai/ha, scale 0 to 100, 0 no effect, 100 complete control
[16] = Flood (flooded paddy test), 125 g ai/ha, scale 0 to 100, 0 no effect, 100 complete control
[17] = Flood (flooded paddy test), 250 g ai/ha, scale 0 to 100, 0 no effect, 100 complete control
[18] = Flood, 31 g ai/ha, scale 0 to 100

Question: For `CCc1cc(-c2ccc(C(F)(F)F)cc2)nn1-c1c(OS(C)(=O)=O)cnn(C)c1=O` [Compound 19], which “Plant response rating, Barnyardgrass” value [1, 11] is on record?
Answer: 100

Question: What about the “Plant response rating, Barnyardgrass” value [1, 12] of the same compound?
Answer: 100

Question: And the “Plant response rating, Barnyardgrass” value [1, 13]?
Answer: 100

Question: And the “Plant response rating, Barnyardgrass” value [1, 14]?
Answer: 100

Question: What about the “Plant response rating, Corn” value (corn (Zea mays); [11]) of the same compound?
Answer: 90

Question: What about the “Plant response rating, Corn” value (corn (Zea mays); [12]) of the same compound?
Answer: 90

Question: What about the “Plant response rating, Corn” value (corn (Zea mays); [13]) of the same compound?
Answer: 80

Question: And the “Plant response rating, Corn” value (corn (Zea mays); [14])?
Answer: 90

Question: What about the “Plant response rating, Foxtail, Giant” value [2, 11] of the same compound?
Answer: 100

Question: And the “Plant response rating, Foxtail, Giant” value [2, 12]?
Answer: 100

Question: What about the “Plant response rating, Foxtail, Giant” value [2, 13] of the same compound?
Answer: 100

Question: What about the “Plant response rating, Foxtail, Giant” value [2, 14] of the same compound?
Answer: 100

Question: What about the “Plant response rating, Crabgrass, Large” value [3, 11] of the same compound?
Answer: 90

Question: What about the “Plant response rating, Crabgrass, Large” value [3, 12] of the same compound?
Answer: 100

Question: And the “Plant response rating, Crabgrass, Large” value [3, 13]?
Answer: 100

Question: What about the “Plant response rating, Crabgrass, Large” value [3, 14] of the same compound?
Answer: 100

Question: What about the “Plant response rating, Morningglory” value [4, 11] of the same compound?
Answer: 0

Question: What about the “Plant response rating, Morningglory” value [4, 12] of the same compound?
Answer: 0

Question: And the “Plant response rating, Morningglory” value [4, 13]?
Answer: 0

Question: What about the “Plant response rating, Morningglory” value [4, 14] of the same compound?
Answer: 0

Question: And the “Plant response rating, Pigweed” value [5, 11]?
Answer: 0

Question: What about the “Plant response rating, Pigweed” value [5, 12] of the same compound?
Answer: 0

Question: And the “Plant response rating, Pigweed” value [5, 13]?
Answer: 0

Question: What about the “Plant response rating, Pigweed” value [5, 14] of the same compound?
Answer: 0

Question: And the “Plant response rating, Velvetleaf” value [6, 11]?
Answer: 0

Question: What about the “Plant response rating, Velvetleaf” value [6, 12] of the same compound?
Answer: 0

Question: And the “Plant response rating, Velvetleaf” value [6, 13]?
Answer: 0

Question: And the “Plant response rating, Velvetleaf” value [6, 14]?
Answer: 0

Question: And the “Plant response rating, Wheat” value [7, 11]?
Answer: 60

Question: What about the “Plant response rating, Wheat” value [7, 12] of the same compound?
Answer: 90

Question: What about the “Plant response rating, Wheat” value [7, 13] of the same compound?
Answer: 90

Question: And the “Plant response rating, Wheat” value [7, 14]?
Answer: 100

Question: What about the “Plant response rating, Barnyardgrass” value [8, 15] of the same compound?
Answer: 30

Question: What about the “Plant response rating, Barnyardgrass” value [8, 16] of the same compound?
Answer: 60

Question: What about the “Plant response rating, Barnyardgrass” value [8, 17] of the same compound?
Answer: 75

Question: What about the “Plant response rating, Barnyardgrass” value [8, 18] of the same compound?
Answer: 0

Question: And the “Plant response rating, Ducksalad” value [9, 15]?
Answer: 0

Question: What about the “Plant response rating, Ducksalad” value [9, 16] of the same compound?
Answer: 0

Question: And the “Plant response rating, Ducksalad” value [9, 17]?
Answer: 25

Question: And the “Plant response rating, Ducksalad” value [9, 18]?
Answer: 0

Question: And the “Plant response rating, Rice” value (rice (Oryza sativa); [15])?
Answer: 20

Question: And the “Plant response rating, Rice” value (rice (Oryza sativa); [16])?
Answer: 60

Question: And the “Plant response rating, Rice” value (rice (Oryza sativa); [17])?
Answer: 70

Question: And the “Plant response rating, Rice” value (rice (Oryza sativa); [18])?
Answer: 0

Question: And the “Plant response rating, Sedge, Umbrella” value [10, 15]?
Answer: 30

Question: What about the “Plant response rating, Sedge, Umbrella” value [10, 16] of the same compound?
Answer: 60

Question: And the “Plant response rating, Sedge, Umbrella” value [10, 17]?
Answer: 70

Question: And the “Plant response rating, Sedge, Umbrella” value [10, 18]?
Answer: 0
